# PMC6156755, “Using Human Plasma as an Assay Medium in Caco-2 Studies Improves Mass Balance for Lipophilic Compounds” (Pharmaceutical Research, 2018)
# Where two headings read alike, the source gives them in different places. Marks after values point to notes of the source that are not given here.
# How the values were obtained:
# [1] = Human plasma protein binding (ultracentrifugation or rapid equilibrium dialysis); format: in vitro ADME; settings: for fraction unbound / fraction unbound at 6 h: pH 7.4, read-out: fu (fraction unbound in plasma); for fraction unbound: neat human plasma, 37°C, concentration comparable to Caco-2 assay
# Protocol: Binding was assessed using one of two methods: ultracentrifugation ([31]) using neat human plasma or rapid equilibrium dialysis (RED) using either neat or diluted plasma. […] To allow analysis with a single calibration curve, the total plasma and protein-free supernatant samples were ‘matrix-matched’ by taking aliquots of protein-free supernatant samples and adding to fresh tubes containing an equal volume of blank plasma, or taking aliquots of the total plasma samples and adding to fresh tubes containing an equal volume of Dulbecco’s phosphate-buffered saline (DPBS). In this way, the final composition of both the protein-free supernatant samples and the total plasma samples were ‘matched’ prior to the analysis against a common calibration curve prepared in a 1:1 mixture of human plasma and DPBS. All samples were then stored frozen at −80°C until analysis.
# The holding plate was then placed on a plate shaker (set at 800 rpm; ThermoMixer C, Eppendorf) and maintained at 37°C under a 2% CO2 atmosphere. The dialysis was conducted for 6 h, assuming steady state was achieved by the end of this period ([32]). Samples were then removed from both the donor and dialysate chambers of each RED insert. […] Samples were matrix matched as described above (but using PBS buffer instead of DPBS) and stored at −80°C until analysis.
# For the more lipophilic compounds with potential for very high binding, the RED method was used with diluted plasma to increase the chance of detecting concentrations in the dialysate samples. Diluted human plasma (10% v/v in pH 7.4 phosphate buffered saline) was spiked with each compound (at 10% of the concentration used for the Caco-2 experiment with neat plasma) and binding conducted as described above. The binding in neat plasma was then calculated by correcting for the dilution as described below.
# For binding measurements in neat plasma by ultracentrifugation, the fraction unbound (fu) was calculated from the ratio of the average unbound concentration in protein free supernate (Cunbound) to the average total concentration in non-centrifuged plasma (Ctotal). The standard deviation (SD) for the fu value was calculated using the propagation of errors approach as described previously ([33]). For binding measurements using the RED method in neat plasma, fu was calculated from the ratio of the dialysate to total plasma concentration for each dialysis unit and the mean and SD calculated for replicate units (n = 3).
# For RED binding assessments using 10% plasma, the fu − diluted for individual dialysis units was calculated in the same way as described above.
# in vitro = settings: human; for Papp A→B: Caco-2, pH 7.4, Papp A-B; for Papp B→A: Caco-2, pH 7.4, Papp B-A
# [2] = Caco-2 permeability assay with pH 7.4 buffer or human plasma in both chambers; settings: human; for efflux ratio: Caco-2, pH 7.4, Efflux ratio (B-A/A-B)
# Caco-2 cell monolayer [3] = assay: as above; settings: for Permeability Classification: criteria of Table V; for Mass balance: both directions (where assessed) and both media
# [4] = cited from earlier work
# Caco-2 cell monolayer [5] = tested on: Caco-2 cell monolayer
# [6] = Caco-2, pH 7.4, Papp A-B, buffer pH 7.4 in both chambers
# [7] = RED with diluted human plasma (10% v/v), corrected for dilution, < values from LLOQ
# [8] = buffer (HBSS/HEPES pH 7.4) in both chambers
# [9] = human, values from the literature
# [10] = Caco-2, pH 7.4, Papp A-B, human plasma in both chambers, corrected for fu in donor
# [11] = Caco-2, pH 7.4, Papp B-A, human plasma in both chambers, corrected for fu in donor
# [12] = Caco-2, pH 7.4, Papp B-A, buffer pH 7.4 in both chambers
Compound,fraction unbound [1],"Papp A→B [2, 6] [×10⁻⁶ cm/s]",Mass balance A-B (Caco-2 cell monolayer [3]; [8]) [%],Permeability Classification (Caco-2 cell monolayer [3]; buffer pH 7.4),Mass balance B-A (Caco-2 cell monolayer [3]; buffer pH 7.4 in both chambers) [%],Mass balance A-B (Caco-2 cell monolayer [3]; human plasma in both chambers),Mass balance B-A (Caco-2 cell monolayer [3]; human plasma in both chambers),Permeability Classification (Caco-2 cell monolayer [3]; human plasma),"Papp A→B [2, 10] [×10⁻⁶ cm/s]","Papp B→A [2, 12] [×10⁻⁶ cm/s]","Human FA (fraction absorbed) [4, 9] [%]",other results
"COCCc1ccc(OCC(O)CNC(C)C)cc1 (stereo not drawn) [Metoprolol, metoprolol]",0.7,50 ± 6.1,,,,,,,,,,Papp A→B (in vitro): 57 ± 5.8 ×10⁻⁶ cm/s
"CCCCN(CCCC)CCC(O)c1cc2c(Cl)cc(Cl)cc2c2cc(C(F)(F)F)ccc12 (stereo not drawn) [Halofantrine, halofantrine]",,,<10,Low (Papp < 0.839),<10,83 ± 7.6%,87 ± 4.4%,High (Papp ≥ 8.15),,,,"fraction unbound at 6 h [1, 7]: < 0.0001; Papp ([2]; Caco-2, pH 7.4): > 300 ×10⁻⁶ cm/s; Papp A→B ([2]; Caco-2, pH 7.4): > 300 ×10⁻⁶ cm/s; Papp B→A ([2]; Caco-2, pH 7.4): > 300 ×10⁻⁶ cm/s; Mass balance A-B (Caco-2 cell monolayer [3]; buffer (HBSS/HEPES pH 7.4) in both chambers, listed as halofantrine): < 10%; Mass balance B-A (Caco-2 cell monolayer [3]; buffer pH 7.4 in both chambers, listed as halofantrine): < 10%"
"CC(C)(C)NCC(O)COc1ccc(NC(=O)NC2CCCCC2)cc1 (stereo not drawn) [Talinolol, talinolol]",0.48,,,,,,,,,,,
"O=C1C(O)=C([C@H]2CC[C@H](c3ccc(Cl)cc3)CC2)C(=O)c2ccccc21 [Atovaquone, atovaquone]",,,<10,Low (Papp < 0.839),<10,99 ± 1.2%,97 ± 2.3%,High (Papp ≥ 8.15),> 300,,,"fraction unbound at 6 h [1, 7]: < 0.0002; Papp ([2]; Caco-2, pH 7.4): > 300 ×10⁻⁶ cm/s; Papp B→A [2, 11]: > 300 ×10⁻⁶ cm/s; Mass balance A-B (Caco-2 cell monolayer [3]; buffer (HBSS/HEPES pH 7.4) in both chambers, listed as atovaquone): < 10%; Mass balance B-A (Caco-2 cell monolayer [3]; buffer pH 7.4 in both chambers, listed as atovaquone): < 10%"
"CCN(CC)Cc1cc(Nc2ccnc3cc(Cl)ccc23)ccc1O [Amodiaquine, amodiaquine]",0.12,4.5 ± 0.12,33 ± 1.7,Intermediate,93 ± 4.0,81 ± 6.1^b %,88 ± 4.6%,High (Papp ≥ 8.15),,7.1 ± 1.9,,Papp A→B (in vitro): 90 ± 8.3 ×10⁻⁶ cm/s; Papp B→A (in vitro): 63 ± 9.6 ×10⁻⁶ cm/s; efflux ratio ([2]; buffer pH 7.4 in both chambers): 1.6 ± 0.43; efflux ratio ([2]; human plasma in both chambers): 0.7 ± 0.12
"CN/C(=N/CCSCc1nc[nH]c1C)NC#N [Cimetidine, cimetidine]",0.76,1.7 ± 0.45,,,,,,,,,64,Papp A→B (in vitro): 1.9 ± 0.26 ×10⁻⁶ cm/s; Mass balance (Caco-2 cell monolayer [3]): > 80%
"OC(c1cc(C(F)(F)F)nc2c(C(F)(F)F)cccc12)C1CCCCN1 (stereo not drawn) [Mefloquine, mefloquine]",,2.1 ± 0.65,15 ± 2.6,Intermediate,86 ± 6.7,70 ± 2.6^b %,86 ± 3.1%,High (Papp ≥ 8.15),,4.7 ± 0.35,,"fraction unbound at 6 h [1, 7]: 0.015; Papp A→B (in vitro): 180 ± 20 ×10⁻⁶ cm/s; Papp B→A (in vitro): 150 ± 10 ×10⁻⁶ cm/s; efflux ratio ([2]; buffer pH 7.4 in both chambers): 2.2 ± 0.7; efflux ratio ([2]; human plasma in both chambers): 0.83 ± 0.11; Mass balance A-B (Caco-2 cell monolayer [3]; human plasma in both chambers, listed as mefloquine): 60–70%"
"CC(=O)Nc1ccc(O)cc1 [Paracetamol, paracetamol]",0.86,32 ± 2.9,92 ± 3.8,,,92 ± 0.58%,,,37 ± 4,,90,
"CC(C)(C)NCc1cc(Nc2ccnc3cc(Cl)ccc23)c2c(c1O)CCCC2 [Naphthoquine, naphthoquine]",,,,,,,,,,,,"fu (fraction unbound in plasma) [1, 7]: 0.019 ^e; Efflux ratio (B-A/A-B) (Caco-2 cell monolayer [5]; Caco-2): 0.78 ± 0.12; Mass balance B-A (Caco-2 cell monolayer [5]; Caco-2): 94 ± 14%; Papp A-B (Caco-2 cell monolayer [5]; Caco-2): 230 ± 32^b 10^−6 cm/s; Papp B-A (Caco-2 cell monolayer [5]; Caco-2): 180 ± 10^b 10^−6 cm/s; Efflux ratio (B-A/A-B) (Caco-2 cell monolayer [5]; Caco-2, pH 7.4): 2.0 ± 1.3; Mass balance A-B (Caco-2 cell monolayer [5]; Caco-2, pH 7.4): 31 ± 7.2%; Mass balance B-A (Caco-2 cell monolayer [5]; Caco-2, pH 7.4): 70 ± 10%; Papp A-B (Caco-2 cell monolayer [5]; Caco-2, pH 7.4): 2.2 ± 1.3 10^−6 cm/s; Papp B-A (Caco-2 cell monolayer [5]; Caco-2, pH 7.4): 4.5 ± 1.4 10^−6 cm/s; Permeability Classification (Caco-2 cell monolayer [5]; Caco-2, pH 7.4): Intermediate"
"CC(C)NCC(O)COc1ccc(CC(N)=O)cc1 (stereo not drawn) [Atenolol, atenolol]",,,,,,,,,,,55,
"CCN(CC)CCCC(C)Nc1ccnc2cc(Cl)ccc12 (stereo not drawn) [Chloroquine, chloroquine]",,,,High (Papp ≥ 4.90),,,,High (Papp ≥ 8.15),,,,"Permeability Classification (Caco-2 cell monolayer [3]; buffer pH 7.4, listed as chloroquine): high; Permeability Classification (Caco-2 cell monolayer [3]; human plasma, listed as chloroquine): high"
lucifer yellow,,,,,,,,,,,,"fu (fraction unbound in plasma) ([1]; human, plasma): 0.51; Mass balance (Caco-2 cell monolayer [5]; Caco-2): > 80%; Mass balance A-B (Caco-2 cell monolayer [5]; Caco-2): 98 ± 4.7%; Papp A-B (Caco-2 cell monolayer [5]; Caco-2): 0.17 ± 0.069 10^−6 cm/s; Mass balance A-B (Caco-2 cell monolayer [5]; Caco-2, pH 7.4): 86 ± 6.7%; Papp A-B (Caco-2 cell monolayer [5]; Caco-2, pH 7.4): 0.21 ± 0.085 10^−6 cm/s; Human FA (fraction absorbed) ([4]; in vivo): 0%"
"COc1ccc2cc([C@H](C)C(=O)O)ccc2c1 [Naproxen, naproxen]",,,,,,,,,,,100,
"Clc1ccc2c(N3CCN(CCCN4CCN(c5ccnc6cc(Cl)ccc56)CC4)CC3)ccnc2c1 [Piperaquine, piperaquine]",,,<10,Low (Papp < 0.839),<10,100 ± 8.1%,100 ± 5.8%,High (Papp ≥ 8.15),> 300,,,"fraction unbound at 6 h [1, 7]: < 0.001; Papp ([2]; Caco-2, pH 7.4): > 300 ×10⁻⁶ cm/s; Papp B→A [2, 11]: > 300 ×10⁻⁶ cm/s; Mass balance A-B (Caco-2 cell monolayer [3]; buffer (HBSS/HEPES pH 7.4) in both chambers, listed as piperaquine): < 10%; Mass balance B-A (Caco-2 cell monolayer [3]; buffer pH 7.4 in both chambers, listed as piperaquine): < 10%"

# More lines, main results first:
fraction unbound [1],"Papp A→B [2, 6] [×10⁻⁶ cm/s]",Mass balance A-B (Caco-2 cell monolayer [3]; [8]) [%],Permeability Classification (Caco-2 cell monolayer [3]; buffer pH 7.4),Mass balance B-A (Caco-2 cell monolayer [3]; buffer pH 7.4 in both chambers) [%],Mass balance A-B (Caco-2 cell monolayer [3]; human plasma in both chambers),Mass balance B-A (Caco-2 cell monolayer [3]; human plasma in both chambers),Permeability Classification (Caco-2 cell monolayer [3]; human plasma),"Papp A→B [2, 10] [×10⁻⁶ cm/s]","Papp B→A [2, 12] [×10⁻⁶ cm/s]",Compound,"Human FA (fraction absorbed) [4, 9] [%]",other results
0.92,0.99 ± 0.11,97 ± 11,,,92 ± 7.2%,,,2.1 ± 0.058,,"CNC(=C[N+](=O)[O-])NCCSCc1ccc(CN(C)C)o1 [Ranitidine, ranitidine]",50,Mass balance (Caco-2 cell monolayer [3]): > 80%
0.83,0.29 ± 0.051,99 ± 2.3,,99 ± 1.7,96 ± 4.0%,97 ± 5.2%,,0.31 ± 0.081,0.56 ± 0.026,"OC[C@@H](O)[C@@H](O)[C@H](O)[C@H](O)CO [^14C-Mannitol, D-[1-^14C]-mannitol]",26,"efflux ratio ([2]; buffer pH 7.4 in both chambers): 1.9 ± 0.35; efflux ratio ([2]; human plasma in both chambers): 1.4 ± 0.37; Papp B→A [2, 11]: 0.43 ± 0.021 ×10⁻⁶ cm/s; Mass balance (Caco-2 cell monolayer [3]): > 80%"
0.04,2.4 ± 1.4,76 ± 0.58,,60 ± 5.6,100 ± 7.2^b %,110 ± 7.5^b %,,8.4 ± 2.5,34 ± 2.1,CC(C)(C)NC(=O)[C@@H]1C[C@@H]2CCCC[C@@H]2CN1C[C@@H](O)[C@H](Cc1ccccc1)NC(=O)[C@H](CC(N)=O)NC(=O)c1ccc2ccccc2n1 [Saquinavir],,"Papp B→A [2, 11]: 140 ± 42 ×10⁻⁶ cm/s"
0.35,1.6 ± 0.32,99 ± 11,,99 ± 1.2,98 ± 1.5%,92 ± 4.7%,,1.2 ± 0.058,9.7 ± 1.1,"COC(=O)c1ccccc1-c1c2ccc(=N)cc-2oc2cc(N)ccc12 [Rhodamine 123, rhodamine 123]",,"efflux ratio ([2]; buffer pH 7.4 in both chambers): 6.1 ± 1.4; efflux ratio ([2]; human plasma in both chambers): 12 ± 1.4; Papp B→A [2, 11]: 14 ± 1.5 ×10⁻⁶ cm/s"
0.25,58 ± 4.5,,,97 ± 0.58,,99 ± 2.3%,,,52 ± 4,"CC(C)NCC(O)COc1cccc2ccccc12 (stereo not drawn) [Propranolol, propranolol]",,"Increase in Papp using plasma compared to buffer (Caco-2 cell monolayer [5]; human, Caco-2, pH 7.4): 2-3 fold; Papp A→B (in vitro): 120 ± 35 ×10⁻⁶ cm/s; Papp B→A (in vitro): 110 ± 19 ×10⁻⁶ cm/s"
